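48-hour exposure; five concentrations; linearly interpolated endpoints. GI50: concentration for 50% inhibition of growth. TGI: total growth inhibition.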
How the values were obtained:
Assay in all cases: NCI anticancer screen, dose series, 48 h
[1] = system: A549 NSCLC
[2] = system: ACHN renal
[3] = system: HCT-15 colon
[4] = system: HT29 colon
[5] = system: MCF7 breast
[6] = system: OVCAR-5 ovarian
[7] = system: RPMI-8226 leukemia
[8] = system: SF-295 CNS
[9] = system: SK-MEL-5 melanoma
[10] = system: T-47D breast

Row | Structure (SMILES) | GI50 [1] [µM] | TGI [1] [µM] | GI50 [2] [µM] | TGI [2] [µM] | GI50 [3] [µM] | TGI [3] [µM] | GI50 [4] [µM] | TGI [4] [µM] | GI50 [5] [µM] | TGI [5] [µM] | GI50 [6] [µM] | TGI [6] [µM] | GI50 [7] [µM] | TGI [7] [µM] | GI50 [8] [µM] | TGI [8] [µM] | GI50 [9] [µM] | TGI [9] [µM] | GI50 [10] [µM] | TGI [10] [µM]
1 | CC(=O)/C=C/c1ccc(C#Cc2ccccc2)s1 | 15.1 | 28.5 | 16.3 | 29.8 | 15.6 | 29 | 12 | 25.2 | 7.6 | 65 | 15.9 | 29.7 | 20.7 | 38 | 19.1 | 42.7 | 11.1 | 23.1 | 11.4 | 28.4
2 | COc1cccc(/C(COc2ccc3c(c2)oc(=O)c2cc(OC)ccc23)=N/O)c1 | 7.57 | > 100 | 3.64 | > 100 | 3.99 | > 100 | 3.38 | > 100 | 4.02 | > 100 | > 100 | > 100 | 4.76 | > 100 | 8.22 | > 100 | 4.95 | 80.5 | 4.85 | > 100
3 | [Au+].[Au+].[Au+].[c-]1nccn1Cc1ccccc1.[c-]1nccn1Cc1ccccc1.[c-]1nccn1Cc1ccccc1 | 24.7 | 65.4 | 14.3 | 28.6 | 19.9 | 56.7 | 16.9 | > 77.4 | 10.7 | 39 | 27.8 | 61.9 | 3.9 | > 100 | 10.5 | 40.2 | 2.93 | 6.15 | 7.42 | 36.8
4 | CCC(C)(C)c1ccc(OCCCCCCN2CCNCC2)cc1 | 3.77 | 13.7 | 2.19 | 5.45 | 1.66 | 3.39 | 1.86 | 4.72 | 1.56 | 3.2 | 2.11 | 5.39 | 1.9 | 4.41 | 1.87 | 3.6 | 1.76 | 3.24 | 1.72 | 3.78
5 | CCn1c(CO)nn(-c2cc(O[C@@H](C)C(F)(F)F)c(C(=O)Nc3c(F)cccc3Cl)cc2F)c1=O | < 0.01 | > 100 | < 0.0122 | > 100 | < 0.01 | > 100 | < 0.01 | > 100 | < 0.01 | > 100 | > 100 | > 100 | < 0.01 | > 62.2 | < 0.01 | > 100 | < 0.0152 | > 39.1 | 0.0723 | 86.2
6 | O=[N+]([O-])c1ccc2c(c1)C(c1ccccc1Cl)=Nc1cn[nH]c1N2 | 19.7 | > 25 | 14.4 | > 25 | 15.3 | > 25 | 19.2 | > 25 | 10.9 | > 25 | > 25 | > 25 | > 24.2 | > 25 | 8.48 | > 23.8 | 11.3 | > 25 | 14 | > 25
7 | Cc1cc[c-]cc1.Fc1c[c-]c(-c2ccccn2)c(F)c1.[Pt+2].c1ccc(P(C[PH+](c2ccccc2)c2ccccc2)c2ccccc2)cc1 | 1.43 | 12.1 | 2.89 | 9.84 | 3.21 | 12.6 | 2.61 | 12.4 | 2.33 | 7.83 | 2.99 | 11.9 | 0.719 | 4.38 | 2.56 | 10.2 | 1.66 | 3.05 | 2.34 | 9.47
8 | O=C(/C=C/c1cc(CN2CCOCC2)c(O)c2ncccc12)c1cc(CN2CCOCC2)c(O)c2ncccc12 | 0.0285 | > 100 | 0.0329 | > 100 | 0.0236 | > 100 | 0.0695 | > 100 | < 0.0175 | > 100 | 0.0585 | > 100 | 0.0222 | > 100 | 0.0529 | > 36.4 | 0.0237 | 0.0607 | 0.0574 | 2.48
9 | CC(C)S(=O)(=O)c1ccccc1Nc1nc(Nc2cccc(NC(=O)CN)c2)ncc1Cl | 0.147 | 9.03 | 0.124 | 6.95 | 0.16 | 3.72 | 0.183 | 2.83 | 0.0177 | 1.25 | 0.183 | 9.27 | 0.254 | 2.41 | < 0.0225 | 8.59 | 0.136 | 0.894 | 0.586 | 4.68
10 | CC(=O)O[C@H](C[C@H](C(C)C)N(C)C(=O)[C@@H](NC(=O)[C@H]1CCCCN1C)C(C)C)c1nc(C(=O)N[C@@H](Cc2ccccc2)C[C@H](C)C(=O)O)c(CCOCc2ccccc2)s1 | < 0.001 | > 10 | 0.00105 | > 10 | < 0.001 | > 10 | < 0.001 | > 10 | < 0.001 | > 10 | < 0.001 | > 10 | < 0.001 | > 10 | < 0.001 | < 0.0297 | < 0.001 | 0.00159 | < 0.001 | > 10
11 | COCCOc1cnc2ccn([C@H](C)c3nnc4c(F)cc(-c5cnn(C)c5)cn34)c(=O)c2c1 | > 100 | > 100 | > 100 | > 100 | > 100 | > 100 | > 100 | > 100 | > 100 | > 100 | > 100 | > 100 | > 100 | > 100 | 23.4 | > 100 | > 100 | > 100 | > 100 | > 100
12 | COc1ccc2c(c1)[C@@]13CCCC[C@H]1[C@@H](C2)N(C)CC3=O | – | 41 | – | 30.4 | – | 32.1 | – | 37.5 | – | 33.2 | – | 33.3 | – | 96.8 | – | > 100 | – | 61 | – | 33.2

From PubChem BioAssay (NCI)
